Patent US11912660B2, “S6K1 protein kinase inhibitors as cancer therapeutics” (Xavier University of Louisiana, priority 2020, dated 2024)
Where two headings read alike, the source gives them in different places.

Legend:
[1] = biological target: T1, RPS6K1 (Homo sapiens (Human), UniProt P23443); assay: High-throughput screening and IC50 determination for inhibition of RPS6K1 (FRET based assay by ThermoFisher); assay type: biochemical; conditions: dose response curve
Excerpt: These three compounds were then subjected to IC50 value determination (dose response curve) using the same FRET based assay by ThermoFisher (Table 5).

[2] = system: ER positive breast cancer cell line MCF7; assay: MTT assay growth inhibition; assay type: cell-based; conditions: FIG. 1B
Excerpt: (§1) Cell viability assays used the methods outlined in an earlier publication: Identification of New Mono/Dihydroxynaphthoquinone as Lead Agents that Inhibit the Growth of Refractive and Triple-negative Breast Cancer Cell lines. Schroeder, R.; Sfondouris, M.; Goyal, N.; Komati, R.; Weerathunga, A.; Gettridge, C.; Stevens, C. L. K.; Jones, F. E.; Sridhar, J. ACS Omega, 2019 Jun 19. 4(6):10610-10619.
(§2) RPS6K1 is known to play a critical role in several cancers including HER2 positive breast cancer, ER positive breast cancer, prostate cancer and small cell lung cancer. To verify whether RPS6K1 inhibitors of the instant disclosure could inhibit growth of these types of cancers, MTT assays were performed using the HER2 positive breast cancer cell line SKBR3, ER positive breast cancer cell line MCF7, and the prostate cancer cell line DU-145. The MTT assay is a colorimetric assay for assessing cell metabolic activity. NAD(P)H-dependent cellular oxidoreductase enzymes may, under defined conditions, reflect the number of viable cells present. These enzymes are capable of reducing the tetrazolium dye MTT 3-(4,5-dimethylthiazol-2-yl)-2,5-diphenyltetrazolium bromide to its insoluble formazan, which has a purple color.

[3] = system: HER2 positive breast cancer cell line SKBR3; assay: MTT assay growth inhibition; assay type: cell-based; conditions: for IC50: Homo sapiens; for growth inhibition: SKBR3, MTT, FIG. 1A
Excerpt: as §1, §2

[4] = biological target: T1, RPS6K1; assay: High-throughput screening and IC50 determination for inhibition of RPS6K1 (FRET based assay by ThermoFisher); assay type: biochemical; conditions: table head prints 10 µM; text says 10 μM concentration
[5] = system: prostate cancer cell line DU-145; assay: MTT assay growth inhibition; assay type: cell-based; conditions: DU-145, MTT, FIG. 1C
Excerpt: as §1, §2

[6] = SK-BR-3, SKBR3 breast cancer cell line, MTT, read-out: IC50 values of growth inhibition

T1 sequence (P23443 whole entry): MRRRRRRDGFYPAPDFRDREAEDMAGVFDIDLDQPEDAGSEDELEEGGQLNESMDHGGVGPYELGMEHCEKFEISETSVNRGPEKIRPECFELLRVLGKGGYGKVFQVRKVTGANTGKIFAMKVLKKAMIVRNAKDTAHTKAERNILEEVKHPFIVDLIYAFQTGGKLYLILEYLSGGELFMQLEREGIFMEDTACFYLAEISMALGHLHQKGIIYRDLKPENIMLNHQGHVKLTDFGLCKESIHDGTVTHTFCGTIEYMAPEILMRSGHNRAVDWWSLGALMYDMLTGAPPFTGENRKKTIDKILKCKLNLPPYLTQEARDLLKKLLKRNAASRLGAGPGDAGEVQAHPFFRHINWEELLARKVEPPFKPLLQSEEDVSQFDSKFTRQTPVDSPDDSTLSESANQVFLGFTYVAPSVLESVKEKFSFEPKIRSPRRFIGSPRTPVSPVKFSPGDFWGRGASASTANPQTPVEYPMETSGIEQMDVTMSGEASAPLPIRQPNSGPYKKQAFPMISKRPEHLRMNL

SMILES | IC50 [1] | growth inhibition [2] | IC50 [3, 6] | growth inhibition [3] | RPS6K1% inhibition at 10 µM compound concentration [4] | growth inhibition [5] | IC50 ([3]; SK-BR-3, read-out: IC50 values of growth inhibition)
Nc1cc(NC(=O)c2ccccc2)cc2c1C(=O)NC2=O [RJ-19] | 3480 nM | not as effective | 3.3 µM | showed inhibition | 71% |  | 
Nc1cc(NC(=O)c2ccccc2Br)cc2c1C(=O)NC2=O [RJ-22] | > 2780 nM | excellent growth inhibition | 1.9 µM | excellent growth inhibition | 86% | excellent growth inhibition | 
Nc1cc(NC(=O)c2cc([N+](=O)[O-])cc([N+](=O)[O-])c2)cc2c1C(=O)NC2=O [RJ-28] | 2560 nM | excellent growth inhibition |  | excellent growth inhibition | 79% | excellent growth inhibition | 4.7 µM
